target: wt human LRRK2, catalytic site (Homo sapiens (Human), UniProt Q5S007); experiment: TR-FRET LanthaScreen Tb Kinase Activity Assay (LRRK2 kinase inhibition); format: biochemical; details: 2 nM wt human LRRK2, 400 nM fluorescein-ERM (LRRKtide) peptide, 38 μM ATP, 120 minutes at room temperature
Method in brief: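 LanthaScreen TR-FRET with 2 nM wt human LRRK2 catalytic site, 400 nM fluorescein-ERM (LRRKtide) peptide and 38 µM ATP in Kinase Buffer A; 120 min at room temperature. Phosphorylation detected with EDTA and Tb-anti-pLRRKtide after 60 min; IC50 from emission ratios.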

Chain of wt human LRRK2, catalytic site (Q5S007 1879-2138): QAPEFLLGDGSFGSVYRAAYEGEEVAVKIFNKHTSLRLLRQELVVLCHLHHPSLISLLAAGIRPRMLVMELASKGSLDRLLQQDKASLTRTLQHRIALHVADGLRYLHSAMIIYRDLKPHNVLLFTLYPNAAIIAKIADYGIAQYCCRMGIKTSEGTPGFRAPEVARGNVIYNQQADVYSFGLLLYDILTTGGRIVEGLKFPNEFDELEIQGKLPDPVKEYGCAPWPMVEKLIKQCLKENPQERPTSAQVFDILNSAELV

| SMILES | IC50 [nM] |
| --- | --- |
| CS(=O)(=O)CCn1ncc2c(Nc3ncc(C(F)(F)F)c(NC4CC4)n3)ccc(F)c21 [Example 177, N^4-cyclopropyl-N^2-[7-fluoro-1-(2-methylsulfonylethyl)indazol-4-yl]-5-(trifluoromethyl)pyrimidine-2,4-diamine] | < 50 |
| CNc1nc(Nc2ccc3c4c2cnn4CCO3)ncc1C(F)(F)F [Example 178, N^4-methyl-N^2-(9-oxa-1,2-diazatricyclo[6.3.1.04,12]dodeca-2,4,6,8(12)-tetraen-5-yl)-5-(trifluoromethyl)pyrimidine-2,4-diamine] | < 50 |
| FC(F)(F)c1cnc(Nc2ccc3c4c2cnn4CCO3)nc1NC1CC1 [Example 179, N^4-cyclopropyl-N^2-(2,3-dihydro-[1,4]oxazino[2,3,4-hi]indazol-7-yl)-5-(trifluoromethyl)pyrimidine-2,4-diamine] | < 50 |
| CC(C)Nc1nc(Nc2ccc3c4c2cnn4CCO3)ncc1C(F)(F)F [Example 180, N^4-isopropyl-N^2-(9-oxa-1,2-diazatricyclo[6.3.1.04,12]dodeca-2,4,6,8(12)-tetraen-5-yl)-5-(trifluoromethyl)pyrimidine-2,4-diamine] | < 50 |
| CCNc1nc(Nc2ccc(F)c3c2cnn3CC(C)(C)O)nc2[nH]nc(Cl)c12 [Example 181, 1-(4-((3-chloro-4-(ethylamino)-1H-pyrazolo[3,4-d]pyrimidin-6-yl)amino)-7-fluoro-1H-indazol-1-yl)-2-methylpropan-2-ol] | < 50 |
| Cc1n[nH]c2nc(Nc3cccc4c3cnn4CCS(C)(=O)=O)nc(NC3CC3)c12 [Example 182, N^4-cyclopropyl-3-methyl-N^6-[1-(2-methylsulfonylethyl)indazol-4-yl]-1H-pyrazolo[3,4-d]pyrimidine-4,6-diamine] | < 50 |
| CNc1nc(Nc2cccc3c2cnn3CC(C)(C)O)nc2[nH]nc(Cl)c12 [Example 183, 1-[4-[[3-chloro-4-(methylamino)-1H-pyrazolo [3,4-d]pyrimidin-6-yl]amino]indazol-1-yl]-2-methyl-propan-2-ol] | < 50 |
| CNc1nc(Nc2cccc3c2cnn3CC(C)(C)O)nc2[nH]cnc12 [Example 184, 2-methyl-1-[4-[[6-(methylamino)-9H-purin-2-yl]amino]indazol-1-yl]propan-2-ol] | < 50 |
| CCNc1nc(Nc2cccc3c2cnn3CC(F)F)nc2[nH]nc(C)c12 [Example 185, N^6-(1-(2,2-difluoroethyl)-1H-indazol-4-yl)-N^4-ethyl-3-methyl-1H-pyrazolo[3,4-d]pyrimidine-4,6-diamine] | < 50 |
| CCNc1nc(Nc2cccc3c2cnn3CCS(C)(=O)=O)ncc1C(F)(F)F [Example 186, N^4-ethyl-N^2-[1-(2-methylsulfonylethyl)indazol-4-yl]-5-(trifluoromethyl) pyrimidine-2,4-diamine] | < 50 |
| CS(=O)(=O)CCn1ncc2c(Nc3ncc(C(F)(F)F)c(NCC4CC4)n3)cccc21 [Example 187, N^4-(cyclopropylmethyl)-N^2-(1-(2-(methylsulfonyl)ethyl)-1H-indazol-4-yl)-5-(trifluoromethyl)pyrimidine-2,4-diamine] | < 50 |
| CNc1nc(Nc2cccc3c2cnn3CCS(C)(=O)=O)ncc1C(F)(F)F [Example 188, N^4-methyl-N^2-[1-(2-methylsulfonylethyl)indazol-4-yl]-5-(trifluoromethyl) pyrimidine-2,4-diamine] | < 50 |
| CC(C)(C#N)n1ncc2c(Nc3ncc(C(F)(F)F)c(NC4CC4)n3)ccnc21 [Example 189, 2-(4-((4-(cyclopropylamino)-5-(trifluoromethyl)pyrimidin-2-yl)amino)-1H-pyrazolo[3,4-b]pyridin-yl)-2-methylpropanenitrile] | < 50 |
| FC(F)(F)c1cnc(Nc2cccc3c2cnn3C2CC2)nc1NC1CC1 [Example 190, N^4-cyclopropyl-N^2-(1-cyclopropyl-1H-indazol-4-yl)-5-(trifluoromethyl) pyrimidine-2,4-diamine] | < 50 |
| CC1(Nc2nc(Nc3cccc4c3cnn4CCS(C)(=O)=O)ncc2C(F)(F)F)CC1 [Example 191, N^4-(1-methylcyclopropyl)-N^2-(1-(2-(methylsulfonyl)ethyl)-1H-indazol-4-yl)-5-(trifluoromethyl)pyrimidine-2,4-diamine] | < 50 |
| CS(=O)(=O)CCn1ncc2c(Nc3ncc(C(F)F)c(NC4CC4)n3)cccc21 [Example 192, N^4-cyclopropyl-5-(difluoromethyl)-N^2-[1-(2-methylsulfonylethyl)indazol-4-yl]pyrimidine-2,4-diamine] | < 50 |
| FC(F)(F)c1cnc(Nc2cccc3c2cnn3CCN2CCOCC2)nc1NC1CC1 [Example 193, N^4-cyclopropyl-N^2-(1-(2-morpholinoethyl)-1H-indazol-4-yl)-5-(trifluoromethyl)pyrimidine-2,4-diamine] | < 50 |
| CC(C)S(=O)(=O)CCn1ncc2c(Nc3ncc(C(F)(F)F)c(NC4CC4)n3)cccc21 [Example 194, N4-cyclopropyl-N^2-(1-(2-(isopropylsulfonyl)ethyl)-1H-indazol-4-yl)-5-(trifluoromethyl)pyrimidine-2,4-diamine] | < 50 |
| CC(C)(CS(C)(=O)=O)n1ncc2c(Nc3ncc(C(F)(F)F)c(NC4CC4)n3)cccc21 [Example 195, N^4-cyclopropyl-N^2-(1-(2-methyl-1-(methylsulfonyl)propan-2-yl)-1H-indazol-4-yl)-5-(trifluoromethyl)pyrimidine-2,4-diamine] | < 50 |
| CC(C)(C)n1ncc2c(Nc3ncc(C(F)(F)F)c(NC4CC4)n3)cccc21 [Example 196, N^2-(1-tert-butylindazol-4-yl)-N^4-cyclopropyl-5-(trifluoromethyl)pyrimidine-2,4-diamine] | < 50 |
| FC(F)(F)c1cnc(Nc2cccc3c2cnn3CC2COC2)nc1NC1CC1 [Example 197, N^4-cyclopropyl-N^2-(1-(oxetan-3-ylmethyl)-1H-indazol-4-yl)-5-(trifluoromethyl) pyrimidine-2,4-diamine] | 50 to 200 |
| CS(=O)(=O)CCn1ncc2c(Nc3ncc(C(F)(F)F)c(N[C@H]4C[C@H]4F)n3)cccc21 [Example 198, N^4-((1S,2R)-2-fluorocyclopropyl)-N^2-(1-(2-(methylsulfonyl)ethyl)-1H-indazol-4-yl)-5-(trifluoromethyl)pyrimidine-2,4-diamine] | < 50 |
| CS(=O)(=O)CCn1ncc2c(Nc3ncc(C(F)(F)F)c(N[C@H]4C[C@@H]4F)n3)cccc21 [Example 199, N^4-((1S,2S)-2-fluorocyclopropyl)-N^2-(1-(2-(methylsulfonyl)ethyl)-1H-indazol-4-yl)-5-(trifluoromethyl)pyrimidine-2,4-diamine] | < 50 |
| CC(C)(C#N)Cn1ncc2c(Nc3ncc(C(F)(F)F)c(NC4CC4)n3)cccc21 [Example 200, 3-[4-[[4-(cyclopropylamino)-5-(trifluoromethyl)pyrimidin-2-yl]amino]indazol-1-yl]-2,2-dimethyl-propanenitrile] | < 50 |
| CC(C)(O)Cn1ncc2c(Nc3ncc(C(F)(F)F)c(NC4CC4)n3)ccnc21 [Example 201, 1-(4-((4-(cyclopropylamino)-5-(trifluoromethyl)pyrimidin-2-yl)amino)-1H-pyrazolo[3,4-b]pyridin-1-yl)-2-methylpropan-2-ol] | < 50 |
| CNc1nc(Nc2cccc3c2cnn3C(C)(C)C#N)nc2[nH]cnc12 [Example 202, 2-methyl-2-[4-[[6-(methylamino)-9H-purin-2-yl]amino]indazol-1-yl]propanenitrile] | < 50 |
| CS(=O)(=O)CCn1ncc2c(Nc3nc(NC4CC4)c4c(Cl)c[nH]c4n3)cccc21 [Example 203, 5-chloro-N^4-cyclopropyl-N^2-(1-(2-(methylsulfonyl)ethyl)-1H-indazol-4-yl)-7H-pyrrolo[2,3-d]pyrimidine-2,4-diamine] | < 50 |
| Cc1n[nH]c2nc(Nc3cccc4c3cnn4CC(C)(C)O)nc(NC3CC3)c12 [Example 204, 1-[4-[[4-(cyclopropylamino)-3-methyl-1H-pyrazolo[3,4-d]pyrimidin-6-yl]amino]indazol-1-yl]-2-methyl-propan-2-ol] | < 50 |
| CCNc1nc(Nc2ccc(F)c3c2cnn3CC(C)(C)O)nc2[nH]nc(C)c12 [Example 205, 1-[4-[[4-(ethylamino)-3-methyl-1H-pyrazolo[3,4-d]pyrimidin-6-yl]amino]-7-fluoro-indazol-1-yl]-2-methyl-propan-2-ol] | < 50 |

Source: patent US20240174647A1 (NEURON23, INC., priority 2022, published 2024)
